For this assay, the target named is mitochondrial complex I (NADH:ubiquinone oxidoreductase) (Mus musculus, UniProt P03888+Q91WD5+Q9DC70). The class given is biochemical.

The IC50 is the concentration at which inhibition is half-maximal. Higher therefore signals a need for much substance. Regarding `CN(C)C(=N)N=C(N)N` [metformin], the 50% inhibitory concentration (IC50) is about 2000 µM.

Values taken from PMC9623604 (European journal of pharmacology, 2022).
